Measured values: patent US9301911B2, “Composition comprising tauroursodeoxycholic acid” (priority 2012, dated 2016)

Legend:
S. mutans = assay: Antimicrobial activity against S. mutans (growth inhibition, O.D. 600 nm); assay type: cell-based, Streptococcus mutans
Description: We evaluated antimicrobial activities of TUDCA (PRODOTTI CHIMICI E ALIMENTARI S.p.A. Co., Italy), bamboo salt, xanthorrhiza oil (curcuma xanthorrhiza oil having 22-35% of xanthorrhizol, ‘Curcuma Xanthorrhiza Essential Oil’ extracted from Curcuma Xanthorrhiza Root, Daewoong Bio Inc.), and a mixture thereof, against S. Mutans. Briefly, to each well of a 96-well plate, were added 100 μl of BHI broth (Brain Heart Infusion broth, Sigma-Aldrich) and each test material in two times higher concentration than the concentration shown in the following Table 2. S. mutans was cultured in BHI broth (Brain Heart Infusion broth, Sigma-Aldrich) at 35° C. for 24 hours. Absorbance at 600 nm of the S. mutans-containing culture medium was adjusted to 0.063 to 0.12 and then the resulting culture medium was diluted to 1/500. The diluted S. Mutans-containing culture medium (100 μl) was added to each well of the 96-well plate. The 96-well plate was incubated at 35° C. for 24 hours, followed by measuring the O.D. values at 600 nm with a spectrophotometer for obtaining the respective growth inhibition percentage.
Antimicrobial activities against S. mutans were evaluated using TUDCA in a relatively low concentration. Using the same kinds of TUDCA, bamboo salt, and xanthorrhiza oil, the evaluations of antimicrobial activity were carried out in the same manners as in Example 2.

collagenase = assay: Inhibitory activity on collagenase (azocoll assay); assay type: biochemical; settings: for Comparative inhibitory activity: [collagenase-inhibitory percentage of TUDCA / that of UDCA]*100
Description: The inhibitory activities of tauroursodeoxycholic acid (TUDCA) and ursodeoxycholic acid (UDCA) on collagenase were evaluated according to an azocoll assay method. Azocoll, Azo dye-impregnated collagen, is not dissolved in Tris-buffer. […] Therefore, by reacting said test materials with azocoll and then measuring the respective absorbance, the inhibitory activities of said materials on collagenase can be determined.
2% Azocoll solution (200 μl) and a buffer solution (0.01 M Tris-HCl, 1 mM CaCl2, pH 7.8) (150 μl) were respectively added to the 6 test tubes to obtain the solutions (Solution A1 to A6). Each solution (100 μl) obtained by dissolving TUDCA or UDCA in 10% ethanol in various concentrations was added to the solutions A1 to A6, so as to obtain the final concentrations of 1.600 w/v %, 0.533 w/v %, and 0.178 w/v %, respectively. Collagenase (50 μl) having 100 ppm concentration was added to the respective test mixture, which was then stirred in a 37° C. incubator for 18 hours. Each test tube was centrifuged for 5 minutes. The supernatant was separated from each test tube and then added to a 96-well plate. The absorbance at 540 nm was measured by a spectrophotometer and then the activity of the test group was determined from the standard activity curve. The standard activity curve was separately prepared by adding 10, 25, 50, and 100 μl of collagenase to the azocoll solution.
The collagenase-inhibitory ratio of TUDCA to the collagenase-inhibitory ratio of UDCA was determined according to the following formula and the results thereof are shown in Table 1. Comparative inhibitory activity=[Collagenase-inhibitory percentage of TUDCA/Collagenase-inhibitory percentage of UDCA]*100

- Comparative inhibitory activity (collagenase; test material 0.178 w/v %): 264.75%
- Comparative inhibitory activity (collagenase; test material 0.533 w/v %): 252.56%
- Comparative inhibitory activity (collagenase; test material 1.600 w/v %): 227.17%
Compound: C[C@H](CCC(=O)NCCS(=O)(=O)O)[C@H]1CC[C@H]2[C@@H]3[C@@H](O)C[C@@H]4C[C@H](O)CC[C@]4(C)[C@H]3CC[C@]12C [TUDCA, tauroursodeoxycholic acid]
- Growth inhibition (S. mutans; Table 2, TUDCA 0.5 w/v %): 38 ± 16%
- Growth inhibition (S. mutans; Table 2, TUDCA 1 w/v %): 51 ± 13%
- Growth inhibition (S. mutans; Table 3, TUDCA 0.01 w/v %): 13%
- growth-inhibition activity against S. mutans (in words) (S. mutans; summary of Table 2): effective growth-inhibition activity
- inhibitory activity against collagenase in comparison with UDCA (collagenase; at the same concentration, in comparison with UDCA): about two times more strong inhibitory activity against collagenase
